Measured values as given in patent US9149536B2, “Conjugated antimicrobial agents” (priority 2009, dated 2015).
In brackets after ≈: the same amount, converted by molar mass.

Key:
E. coli R477-100 = test: MIC, double-microdilution, E. coli R477-100; format: cell-based, Escherichia coli
E. coli ATCC 25922 = test: MIC, double-microdilution, E. coli ATCC 25922; format: cell-based, Escherichia coli; details: for MIC E. coli ATCC 25922: Table 4; for MIC E. coli 25922: Table 6
E. coli AG100B = test: MIC, double-microdilution, E. coli AG100B; format: cell-based, Escherichia coli
From the text: AG100B and AG100A are two kanamycin resistant Escherichia coli strains expressing APH(3′)-I aminoglycoside resistance enzyme.

E. coli AG100A = test: MIC, double-microdilution, E. coli AG100A; format: cell-based, Escherichia coli
B. subtilis ATCC 6633 = test: MIC, double-microdilution, B. subtilis ATCC 6633; format: cell-based; details: for MIC B. subtilis ATCC 6633: Table 4; for MIC Bacillus subtilis: Table 6
MRSA ATCC 43300 = test: microbe, parasite or virus in culture; format: cell-based, S. aureus; details: Table 4
E. coli XL1 blue/pET9d = test: microbe, parasite or virus in culture; format: cell-based; details: Table 6
Experimental: (§1) For this purpose, exemplary conjugates, according to some embodiments of the present invention, were tested against five isogenic E. coli strains. E. coli (pSF815) and E. coli (pET9d) are laboratory resistant strains derived by transformation of E. coli XL1 blue (background strain) with the pSF815 and pET9d plasmids, respectively. […] The last two isogenic strains used were E. coli BL21 (background strain) and E. coli (pETSACG1). […] These three enzymes are among the most prevalent modes of resistance found in aminoglycosides resistance strains.
(§2) The MIC ratios were calculated by dividing the MIC value against resistant strain to that against the respective background strain.

E. coli XL1 blue = test: microbe, parasite or virus in culture; format: cell-based; details: Table 6
Experimental: as §1, §2

[1] = Table 4, kanamycin resistant, APH(3′)-I

Molecule	MIC E. coli R477-100 (E. coli R477-100; Table 4)	MIC E. coli ATCC 25922 (E. coli ATCC 25922)	MIC E. coli AG100B (E. coli AG100B; [1])	MIC E. coli AG100A (E. coli AG100A; [1])	MIC B. subtilis ATCC 6633 (B. subtilis ATCC 6633)	MIC MRSA ATCC 43300 (MRSA ATCC 43300)	other results
NCC1OC(OC2C(C(=O)Nc3ccc(-c4cn(CCCCCN5CCN(c6cc7c(cc6F)c(=O)c(C(=O)O)cn7C6CC6)CC5)nn4)cc3)OC(OC3C(O)C(N)CC(N)C3OC3OC(CN)C(O)C(O)C3N)C2O)C(N)C(O)C1O (stereo not shown) [Compound 1d, N-(4-(1-(2-(ciprofloxacin)pentyl)-1H-1,2,3-triazol-4-yl)-5″-phenyl)neomycin carboxamide]	12 µg/mL (≈ 10.3 µM)	6 µg/mL (≈ 5.13 µM)	24 µg/mL (≈ 20.5 µM)	1.5 µg/mL (≈ 1.28 µM)	12 µg/mL (≈ 10.3 µM)	48 µg/mL (≈ 41 µM)	–
NCC1OC(OC2C(C(=O)NCc3cn(CCN4CCN(c5cc6c(cc5F)c(=O)c(C(=O)O)cn6C5CC5)CC4)nn3)OC(OC3C(O)C(N)CC(N)C3OC3OC(CN)C(O)C(O)C3N)C2O)C(N)C(O)C1O (stereo not shown) [Compound 1j, N-((1-(4-(ciprofloxacin)ethyl)-1H-1,2,3-triazol-4-yl)-5″-methyl)neomycin carboxamide]	12 µg/mL (≈ 11.3 µM)	6 µg/mL (≈ 5.63 µM)	12 µg/mL (≈ 11.3 µM)	1.5 µg/mL (≈ 1.41 µM)	3 µg/mL (≈ 2.81 µM)	24 µg/mL (≈ 22.5 µM)	–
NCC1OC(OC2C(C(=O)NCc3cn(CCCN4CCN(c5cc6c(cc5F)c(=O)c(C(=O)O)cn6C5CC5)CC4)nn3)OC(OC3C(O)C(N)CC(N)C3OC3OC(CN)C(O)C(O)C3N)C2O)C(N)C(O)C1O (stereo not shown) [Compound 1k, N-((1-(4-(ciprofloxacin)propyl)-1H-1,2,3-triazol-4-yl)-5″-methyl)neomycin carboxamide]	12 µg/mL (≈ 11.1 µM)	6 µg/mL (≈ 5.55 µM)	12 µg/mL (≈ 11.1 µM)	1.5 µg/mL (≈ 1.39 µM)	6 µg/mL (≈ 5.55 µM)	48 µg/mL (≈ 44.4 µM)	–
NCC1O[C@@H](O[C@H]2C(N)C[C@H](NCc3cn(CCN4CCN(c5cc6c(cc5F)c(=O)c(C(=O)O)cn6C5CC5)CC4)nn3)C(OC3O[C@@H](CO)C(O)C(N)[C@@H]3O)C2O)C(O)C(O)[C@H]1O (stereo partly shown) [Compound 11a, 4-(1-N-kanamycinmethyl)-1-(2-(ciprofloxacin)ethyl)-1H-1,2,3-triazole]	–	–	–	–	–	–	MIC (E. coli R477-100; Escherichia coli, R477100, read-out: MIC E. Coli R477-100): 6 µg/mL (≈ 6.5 µM); MIC (E. coli ATCC 25922; Escherichia coli, ATCC25922, read-out: MIC E. coli 25922): 3 µg/mL (≈ 3.25 µM); MIC (E. coli AG100B; Escherichia coli, AG100B, read-out: MIC E. coli AG100B, Table 6): 12 µg/mL (≈ 13 µM); MIC (E. coli AG100A; Escherichia coli, AG100A, read-out: MIC E. coli AG100A, Table 6): 0.75 µg/mL (≈ 0.813 µM); MIC (B. subtilis ATCC 6633; Bacillus subtilis, ATCC6633, read-out: MIC Bacillus subtilis): 1.5 µg/mL (≈ 1.63 µM); MIC (E. coli XL1 blue/pET9d; Escherichia coli, XL1BLUE/PET9D, read-out: MIC E. coli XL1 blue/pET9d-aph(3′)-Ia): 6 µg/mL (≈ 6.5 µM); MIC (E. coli XL1 blue; Escherichia coli, XL1BLUE, read-out: MIC E. coli XL1 blue): 6 µg/mL (≈ 6.5 µM)
NCC1OC(OC2C(C(=O)NCc3cn(CCOCCN4CCN(c5cc6c(cc5F)c(=O)c(C(=O)O)cn6C5CC5)CC4)nn3)OC(OC3C(O)C(N)CC(N)C3OC3OC(CN)C(O)C(O)C3N)C2O)C(N)C(O)C1O (stereo not shown) [Compound 1n, N-((1-(2-(2-(ciprofloxacin)ethoxy)ethyl)-1H-1,2,3-triazol-4-yl)-5″-methyl)neomycin carboxamide]	12 µg/mL (≈ 10.8 µM)	6 µg/mL (≈ 5.4 µM)	12 µg/mL (≈ 10.8 µM)	1.5 µg/mL (≈ 1.35 µM)	12 µg/mL (≈ 10.8 µM)	24 µg/mL (≈ 21.6 µM)	–
NCC1OC(OC2C(C(=O)Nc3ccc(-c4cn(CCOCCN5CCN(c6cc7c(cc6F)c(=O)c(C(=O)O)cn7C6CC6)CC5)nn4)cc3)OC(OC3C(O)C(N)CC(N)C3OC3OC(CN)C(O)C(O)C3N)C2O)C(N)C(O)C1O (stereo not shown) [Compound 1g, N-(4-(1-(2-(2-(ciprofloxacin)ethoxy)ethyl)-1H-1,2,3-triazol-4-yl)-5″-phenyl)neomycin carboxamide]	24 µg/mL (≈ 20.5 µM)	12 µg/mL (≈ 10.2 µM)	12 µg/mL (≈ 10.2 µM)	1.5 µg/mL (≈ 1.28 µM)	12 µg/mL (≈ 10.2 µM)	24 µg/mL (≈ 20.5 µM)	–
NC[C@H]1O[C@H](O[C@H]2[C@H](O)[C@@H](O[C@H]3O[C@H](CO)[C@@H](O)[C@H](N)[C@H]3O)[C@H](N)C[C@@H]2N)[C@H](O)[C@@H](O)[C@@H]1O [KanA, kanamycin A, reference compound]	–	–	–	–	–	–	MIC E. coli R477-100 (E. coli R477-100; Table 6): 24 µg/mL (≈ 49.5 µM); MIC E. coli 25922 (E. coli ATCC 25922): 12 µg/mL (≈ 24.8 µM); MIC E. coli AG100B (E. coli AG100B; Table 6): >384 µg/mL; MIC E. coli AG100A (E. coli AG100A; Table 6): 384 µg/mL (≈ 793 µM); MIC Bacillus subtilis (B. subtilis ATCC 6633): 1.5 µg/mL (≈ 3.1 µM); MIC E. coli XL1 blue/pET9d-aph(3′)-Ia (E. coli XL1 blue/pET9d): >384 μg/ml; MIC E. coli XL1 blue (E. coli XL1 blue): 3 µg/mL (≈ 6.19 µM)
NCC1OC(OC2C(N)CC(NCc3cn(Cc4ccc(CN5CCN(c6cc7c(cc6F)c(=O)c(C(=O)O)cn7C6CC6)CC5)cc4)nn3)C(OC3OC(CO)C(O)C(N)C3O)C2O)C(O)C(O)C1O (stereo not shown) [Compound 11i, 4-(1-N-kanamycinmethyl)-1-(4-((ciprofloxacin)methyl)benzyl)-1H-1,2,3-triazole]	–	–	–	–	–	–	MIC E. coli R477-100 (E. coli R477-100; Table 6): 6 µg/mL (≈ 6.01 µM); MIC E. coli 25922 (E. coli ATCC 25922): 6 µg/mL (≈ 6.01 µM); MIC E. coli AG100B (E. coli AG100B; Table 6): 12 µg/mL (≈ 12 µM); MIC E. coli AG100A (E. coli AG100A; Table 6): 0.75 µg/mL (≈ 0.751 µM); MIC Bacillus subtilis (B. subtilis ATCC 6633): 3 µg/mL (≈ 3 µM); MIC E. coli XL1 blue/pET9d-aph(3′)-Ia (E. coli XL1 blue/pET9d): 3 μg/ml; MIC E. coli XL1 blue (E. coli XL1 blue): 3 µg/mL (≈ 3 µM)
NCC1OC(OC2C(C(=O)Nc3ccc(-c4cn(CCCCN5CCN(c6cc7c(cc6F)c(=O)c(C(=O)O)cn7C6CC6)CC5)nn4)cc3)OC(OC3C(O)C(N)CC(N)C3OC3OC(CN)C(O)C(O)C3N)C2O)C(N)C(O)C1O (stereo not shown) [Compound 1c, N-(4-(1-(2-(ciprofloxacin)butyl)-1H-1,2,3-triazol-4-yl)-5″-phenyl)neomycin carboxamide]	12 µg/mL (≈ 10.4 µM)	6 µg/mL (≈ 5.19 µM)	24 µg/mL (≈ 20.8 µM)	1.5 µg/mL (≈ 1.3 µM)	6 µg/mL (≈ 5.19 µM)	24 µg/mL (≈ 20.8 µM)	–
NCC1OC(OC2C(N)CC(NCc3cn(CC(O)CN4CCN(c5cc6c(cc5F)c(=O)c(C(=O)O)cn6C5CC5)CC4)nn3)C(OC3OC(CO)C(O)C(N)C3O)C2O)C(O)C(O)C1O (stereo not shown) [Compound 11f, 1-(4-(1-N-kanamycinmethyl)-1H-1,2,3-triazol-1-yl)-3-(ciprofloxacin)propan-2-ol]	–	–	–	–	–	–	MIC E. coli R477-100 (E. coli R477-100; Table 6): 3 µg/mL (≈ 3.15 µM); MIC E. coli 25922 (E. coli ATCC 25922): 1.5 µg/mL (≈ 1.57 µM); MIC E. coli AG100B (E. coli AG100B; Table 6): 6 µg/mL (≈ 6.3 µM); MIC E. coli AG100A (E. coli AG100A; Table 6): 0.75 µg/mL (≈ 0.787 µM); MIC Bacillus subtilis (B. subtilis ATCC 6633): 1.5 µg/mL (≈ 1.57 µM); MIC E. coli XL1 blue/pET9d-aph(3′)-Ia (E. coli XL1 blue/pET9d): 3 μg/ml; MIC E. coli XL1 blue (E. coli XL1 blue): 3 µg/mL (≈ 3.15 µM)
NCC1OC(OC2C(C(=O)Nc3ccc(-c4cn(CCCCCCN5CCN(c6cc7c(cc6F)c(=O)c(C(=O)O)cn7C6CC6)CC5)nn4)cc3)OC(OC3C(O)C(N)CC(N)C3OC3OC(CN)C(O)C(O)C3N)C2O)C(N)C(O)C1O (stereo not shown) [Compound 1e, N-(4-(1-(2-(ciprofloxacin)hexyl)-1H-1,2,3-triazol-4-yl)-5″-phenyl)neomycin carboxamide]	6 µg/mL (≈ 5.07 µM)	6 µg/mL (≈ 5.07 µM)	12 µg/mL (≈ 10.1 µM)	1.5 µg/mL (≈ 1.27 µM)	12 µg/mL (≈ 10.1 µM)	48 µg/mL (≈ 40.5 µM)	–
NCC1OC(OC2C(C(=O)Nc3ccc(-c4cn(CCN5CCN(c6cc7c(cc6F)c(=O)c(C(=O)O)cn7C6CC6)CC5)nn4)cc3)OC(OC3C(O)C(N)CC(N)C3OC3OC(CN)C(O)C(O)C3N)C2O)C(N)C(O)C1O (stereo not shown) [Compound 1a, N-(4-(1-(2-(ciprofloxacin)ethyl)-1H-1,2,3-triazol-4-yl)-5″-phenyl)neomycin]	12 µg/mL (≈ 10.6 µM)	6 µg/mL (≈ 5.32 µM)	24 µg/mL (≈ 21.3 µM)	0.75 µg/mL (≈ 0.665 µM)	6 µg/mL (≈ 5.32 µM)	48 µg/mL (≈ 42.5 µM)	–
NCC1OC(OC2C(C(=O)Nc3ccc(-c4cn(CCCN5CCN(c6cc7c(cc6F)c(=O)c(C(=O)O)cn7C6CC6)CC5)nn4)cc3)OC(OC3C(O)C(N)CC(N)C3OC3OC(CN)C(O)C(O)C3N)C2O)C(N)C(O)C1O (stereo not shown) [Compound 1b, N-(4-(1-(2-(ciprofloxacin)propyl)-1H-1,2,3-triazol-4-yl)-5″-phenyl)neomycin carboxamide]	6 µg/mL (≈ 5.25 µM)	3 µg/mL (≈ 2.63 µM)	12 µg/mL (≈ 10.5 µM)	1.5 µg/mL (≈ 1.31 µM)	6 µg/mL (≈ 5.25 µM)	48 µg/mL (≈ 42 µM)	–
N-(4-(1-(4-((ciprofloxacin)methyl)benzyl)-1H-1,2,3-triazol-4-yl)-5″-phenyl)neomycin carboxamide [Compound 1h]	6 µg/mL	12 µg/mL	12 µg/mL	1.5 µg/mL	6 µg/mL	12 µg/mL	–
NCC1OC(OC2C(C(=O)NCc3cn(CCCCCN4CCN(c5cc6c(cc5F)c(=O)c(C(=O)O)cn6C5CC5)CC4)nn3)OC(OC3C(O)C(N)CC(N)C3OC3OC(CN)C(O)C(O)C3N)C2O)C(N)C(O)C1O (stereo not shown) [Compound 1l, N-((1-(4-(ciprofloxacin)pentyl)-1H-1,2,3-triazol-4-yl)-5″-methyl)neomycin carboxamide]	24 µg/mL (≈ 21.7 µM)	6 µg/mL (≈ 5.41 µM)	24 µg/mL (≈ 21.7 µM)	1.5 µg/mL (≈ 1.35 µM)	12 µg/mL (≈ 10.8 µM)	48 µg/mL (≈ 43.3 µM)	–
